Data: patent US12233161B1, “Lipids and lipid nanoparticle formulations” (LONGUIDE BIOPHARMA CORPORATION, priority 2024, dated 2025)

Assays:
mice = assay: In vivo delivery of FLuc-mRNA lipid nanoparticles in mice, in vivo imaging (IVIS); details: for in vivo delivery efficiency as compared to the benchmark compound SM102: certain formulations, Table 2
In short: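 Mice (n=3) received about 75 μL FLuc-mRNA LNP per mouse intramuscularly (rectus femoris), intravenously (tail vein), intraperitoneally or subcutaneously (back). After injection, D-luciferin (200 μL, 15 mg/mL) was given i.p. 10-15 min before IVIS imaging.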

[1] = Particle size and PDI of nucleic acid lipid nanoparticle preparations by dynamic light scattering; type: physicochemical
Description: The 7.5 μL nucleic acid lipid nanoparticle solution (containing approximately 0.04 mg/mL mRNA) was taken and added with 200 μL ultrapure water, mixed by gentle blowing using a pipette tip, and the particle size of the nanopreparation was detected by dynamic lightscattering (DLS) using a Malvern Dynamic Light Scattering Instrument (Malvern Instruments Ltd., ZEN3700, UK).
27.5 μL nucleic acid lipid nanoparticle solution (containing about 0.04 mg/mL mRNA) was taken and added with 200 μL ultrapure water. A pipette tip was used to gently blow the sample and mix well. The particle size of the nanopreparation was detected by Malvern Dynamic Light Scattering Instrument (Malvern Instruments Ltd., ZEN3700, UK). After the detection, the sample was recovered to an EP tube, and 600 μL of ultrapure water was added, gently blown with a pipette tip, and the potential of the nanopreparation was measured by a Malvern particle size meter.

[2] = DMG-PEG2000:DSPC:Chol:Lipid 1.09:8.66:30.25:60.00, N/P 13.3, mRNA LNP
[3] = DMG-PEG2000:DSPC:Chol:Lipid 1.40:11.15:38.95:48.50, N/P 13.3, mRNA LNP
[4] = DMG-PEG2000:DSPC:Chol:Lipid 1.40:11.15:38.95:48.50, N/P 60, mRNA LNP
[5] = DMG-PEG2000:DSPC:Chol:Lipid 1.77:14.07:49.16:35.00, N/P 60, mRNA LNP
[6] = DMG-PEG2000:DSPC:Chol:compound 1.40:11.15:38.95:48.50, N/P 30
[7] = DMG-PEG2000:DSPC:Chol:Lipid 0.95:7.58:26.47:65.00, N/P 18, mRNA LNP
[8] = DMG-PEG2000:DSPC:Chol:Lipid 1.40:11.15:38.95:48.50, N/P 18, mRNA LNP
[9] = IM, DMG-PEG2000:DSPC:Chol:compound 1.40:11.15:38.95:48.50, N/P 20, Fluc-mRNA
[10] = IV, organ not given, DMG-PEG2000:DSPC:Chol:compound 1.40:11.15:38.95:48.50, N/P 20, Fluc-mRNA
[11] = DMG-PEG2000:DSPC:Chol:compound 1.40:11.15:38.95:48.50, N/P 20
[12] = DMG-PEG2000:DSPC:Chol:Lipid 1.00:11.50:22.50:65.00, N/P 45, IV, liver
[13] = DMG-PEG2000:DSPC:Chol:Lipid 1.00:11.50:22.50:65.00, N/P 45, IV, lung
[14] = DMG-PEG2000:DSPC:Chol:Lipid 1.00:11.50:22.50:65.00, N/P 45, IV, spleen
[15] = DMG-PEG2000:DSPC:Chol:Lipid 1.00:16.00:48.00:35.00, N/P 30, IV, liver
[16] = DMG-PEG2000:DSPC:Chol:Lipid 1.00:16.00:48.00:35.00, N/P 30, IV, lung
[17] = DMG-PEG2000:DSPC:Chol:Lipid 1.00:16.00:48.00:35.00, N/P 30, IV, spleen
[18] = DMG-PEG2000:DSPC:Chol:Lipid 1.00:11.50:22.50:65.00, N/P 45, mRNA LNP
[19] = DMG-PEG2000:DSPC:Chol:Lipid 1.00:16.00:48.00:35.00, N/P 30, mRNA LNP
[20] = DMG-PEG2000:DSPC:Chol:Lipid 1.40:11.15:38.95:48.50, N/P 45, mRNA LNP
[21] = DMG-PEG2000:DSPC:Chol:Lipid 1.40:11.15:38.95:48.50, N/P 48, mRNA LNP
[22] = DMG-PEG2000:DSPC:Chol:Lipid 1.77:14.07:49.16:35.00, N/P 48, mRNA LNP

SMILES: CCCCCCOCOCCCCCCOC(=O)C(O)CN(CCCN(C)CCCN(CC(O)C(=O)OCCCCCCOCOCCCCCC)CC(O)C(=O)OCCCCCCOCOCCCCCC)CC(O)C(=O)OCCCCCCOCOCCCCCC (stereo not shown) [Compound L0271]
- IVIS (mice; DMG-PEG2000:DSPC:Chol:Lipid 1.09:8.66:30.25:60.00, N/P 13.3, IM, whole body scan): 3.27 × 10^6
- IVIS (mice; DMG-PEG2000:DSPC:Chol:Lipid 1.40:11.15:38.95:48.50, N/P 13.3, IV, whole body scan): 4.16 × 10^8
- PDI [1, 2]: 0.06 ± 0.01
- Particle size [1, 2]: 145.73 ± 2.21 nm
- PDI [1, 3]: 0.04 ± 0.03
- Particle size [1, 3]: 124.63 ± 0.70 nm

SMILES: CCCCCCCCCCNC(=O)C(O)CN(CCCN(CC(O)C(=O)NCCCCCCCCCC)CC(O)C(=O)NCCCCCCCCCC)CCCN(CC(O)C(=O)NCCCCCCCCCC)CC(O)C(=O)NCCCCCCCCCC (stereo not shown) [Compound L0268]
- IVIS (mice; DMG-PEG2000:DSPC:Chol:Lipid 1.40:11.15:38.95:48.50, N/P 60, IV, whole body scan): 3.80 × 10^5
- IVIS (mice; DMG-PEG2000:DSPC:Chol:Lipid 1.77:14.07:49.16:35.00, N/P 60, IM, whole body scan): 5.86 × 10^5
- PDI [1, 4]: 0.07 ± 0.01
- Particle size [1, 4]: 116.83 ± 1.07 nm
- PDI [1, 5]: 0.08 ± 0.01
- Particle size [1, 5]: 95.36 ± 0.61 nm

SMILES: CCCCCCOC(C)OCCCCCCOC(=O)C(O)CN(CCN(C)CCN(CC(O)C(=O)OCCCCCCOC(C)OCCCCCC)CC(O)C(=O)OCCCCCCOC(C)OCCCCCC)CC(O)C(=O)OCCCCCCOC(C)OCCCCCC (stereo not shown) [Compound L0333]
- IVIS (mice; IM, DMG-PEG2000:DSPC:Chol:compound 1.40:11.15:38.95:48.50, N/P 30, Fluc-mRNA): 1.70E+06
- IVIS (mice; IV, body, DMG-PEG2000:DSPC:Chol:compound 1.40:11.15:38.95:48.50, N/P 30, Fluc-mRNA): 6.44E+08
- % of organ targeting (mice; IV, liver, DMG-PEG2000:DSPC:Chol:compound 1.40:11.15:38.95:48.50, N/P 30): 74.80%
- IVIS (mice; IV, liver, DMG-PEG2000:DSPC:Chol:compound 1.40:11.15:38.95:48.50, N/P 30, Fluc-mRNA): 1.29E+08
- % of organ targeting (mice; IV, lung, DMG-PEG2000:DSPC:Chol:compound 1.40:11.15:38.95:48.50, N/P 30): 4.15%
- IVIS (mice; IV, lung, DMG-PEG2000:DSPC:Chol:compound 1.40:11.15:38.95:48.50, N/P 30, Fluc-mRNA): 7.15E+06
- % of organ targeting (mice; IV, spleen, DMG-PEG2000:DSPC:Chol:compound 1.40:11.15:38.95:48.50, N/P 30): 21.05%
- IVIS (mice; IV, spleen, DMG-PEG2000:DSPC:Chol:compound 1.40:11.15:38.95:48.50, N/P 30, Fluc-mRNA): 3.63E+07
- PDI [1, 6]: 0.09
- Particle size (nm) [1, 6]: 130.70 nm

SMILES: CCCCCCCCCCOC(=O)C(O)CN(C)CCN(C)CCN(C)CC(O)C(=O)OCCCCCCCCCC (stereo not shown) [Compound L0275]
- IVIS (mice; DMG-PEG2000:DSPC:Chol:Lipid 0.95:7.58:26.47:65.00, N/P 18, IM, whole body scan): 1.47 × 10^6
- IVIS (mice; DMG-PEG2000:DSPC:Chol:Lipid 1.40:11.15:38.95:48.50, N/P 18, IV, whole body scan): 4.52 × 10^5
- PDI [1, 7]: 0.13 ± 0.01
- Particle size [1, 7]: 121.27 ± 0.93 nm
- PDI [1, 8]: 0.17 ± 0.01
- Particle size [1, 8]: 85.45 ± 0.70 nm

SMILES: CCCCCCCCCCNC(=O)C(O)CN(CCOCCOCCN(CC(O)C(=O)NCCCCCCCCCC)CC(O)C(=O)NCCCCCCCCCC)CC(O)C(=O)NCCCCCCCCCC (stereo not shown) [Compound L0325]
- IVIS (mice; [9]): 5.09E+06
- IVIS (mice; [10]): 1.95E+07
- PDI [1, 11]: 0.12
- Particle size (nm) [1, 11]: 94.88 nm

SMILES: CCCCCCCCCCCCOC(=O)C(O)CN(CCCN(CC(O)C(=O)OCCCCCCCCCCCC)CC(O)C(=O)OCCCCCCCCCCCC)CCCN(CC(O)C(=O)OCCCCCCCCCCCC)CC(O)C(=O)OCCCCCCCCCCCC (stereo not shown) [Compound L0269]
- IVIS (mice; DMG-PEG2000:DSPC:Chol:Lipid 1.00:11.50:22.50:65.00, N/P 45, IV, body): 9.49 × 10^8
- % of organ targeting (mice; [12]): 69.52%
- IVIS (mice; [12]): 2.05 × 10^8
- % of organ targeting (mice; [13]): 0.64%
- IVIS (mice; [13]): 1.88 × 10^6
- % of organ targeting (mice; [14]): 29.84%
- IVIS (mice; [14]): 8.80 × 10^7
- IVIS (mice; DMG-PEG2000:DSPC:Chol:Lipid 1.00:16.00:48.00:35.00, N/P 30, IV, body): 5.46 × 10^8
- % of organ targeting (mice; [15]): 28.77%
- IVIS (mice; [15]): 7.87 × 10^7
- % of organ targeting (mice; [16]): 0.33%
- IVIS (mice; [16]): 8.92 × 10^5
- % of organ targeting (mice; [17]): 70.91%
- IVIS (mice; [17]): 1.94 × 10^8
- IVIS (mice; DMG-PEG2000:DSPC:Chol:Lipid 1.40:11.15:38.95:48.50, N/P 45, IM, whole body scan): 3.83 × 10^7
- in vivo delivery efficiency as compared to the benchmark compound SM102 (mice): superior in vivo delivery efficiency
- PDI [1, 18]: 0.06 ± 0.01
- Particle size [1, 18]: 128.20 ± 0.89 nm
- PDI [1, 19]: 0.11 ± 0.01
- Particle size [1, 19]: 125.17 ± 1.03 nm
- PDI [1, 20]: 0.10 ± 0.01
- Particle size [1, 20]: 142.10 ± 0.78 nm

SMILES: CCCCCCOCOCCCCCCOC(=O)C(O)CN(CCOCCOCCN(CC(O)C(=O)OCCCCCCOCOCCCCCC)CC(O)C(=O)OCCCCCCOCOCCCCCC)CC(O)C(=O)OCCCCCCOCOCCCCCC (stereo not shown) [Compound L0329]
- IVIS (mice; [9]): 4.22E+06
- IVIS (mice; IV, body, DMG-PEG2000:DSPC:Chol:compound 1.40:11.15:38.95:48.50, N/P 20, Fluc-mRNA): 3.09E+06
- % of organ targeting (mice; IV, liver, DMG-PEG2000:DSPC:Chol:compound 1.40:11.15:38.95:48.50, N/P 20): 25.67%
- IVIS (mice; IV, liver, DMG-PEG2000:DSPC:Chol:compound 1.40:11.15:38.95:48.50, N/P 20, Fluc-mRNA): 5.34E+05
- % of organ targeting (mice; IV, lung, DMG-PEG2000:DSPC:Chol:compound 1.40:11.15:38.95:48.50, N/P 20): 5.35%
- IVIS (mice; IV, lung, DMG-PEG2000:DSPC:Chol:compound 1.40:11.15:38.95:48.50, N/P 20, Fluc-mRNA): 1.11E+05
- % of organ targeting (mice; IV, spleen, DMG-PEG2000:DSPC:Chol:compound 1.40:11.15:38.95:48.50, N/P 20): 68.99%
- IVIS (mice; IV, spleen, DMG-PEG2000:DSPC:Chol:compound 1.40:11.15:38.95:48.50, N/P 20, Fluc-mRNA): 1.44E+06
- PDI [1, 11]: 0.18
- Particle size (nm) [1, 11]: 158.43 nm

SMILES: CCCCCCCCCCCCNC(=O)C(O)CN(CCOCCN(CC(O)C(=O)NCCCCCCCCCCCC)CC(O)C(=O)NCCCCCCCCCCCC)CC(O)C(=O)NCCCCCCCCCCCC (stereo not shown) [Compound L0306]
- IVIS (mice; [9]): 1.82E+06
- IVIS (mice; [10]): 7.90E+06
- PDI [1, 11]: 0.14
- Particle size (nm) [1, 11]: 84.96 nm

SMILES: CCCCCCOCOCCCCCCOC(=O)C(O)CN(CCCN(CC(O)C(=O)OCCCCCCOCOCCCCCC)CC(O)C(=O)OCCCCCCOCOCCCCCC)CCCN(CC(O)C(=O)OCCCCCCOCOCCCCCC)CC(O)C(=O)OCCCCCCOCOCCCCCC (stereo not shown) [Compound L0270]
- IVIS (mice; DMG-PEG2000:DSPC:Chol:Lipid 1.40:11.15:38.95:48.50, N/P 48, IM, whole body scan): 2.09 × 10^7
- IVIS (mice; DMG-PEG2000:DSPC:Chol:Lipid 1.40:11.15:38.95:48.50, N/P 48, IV, whole body scan): 1.56 × 10^9
- IVIS (mice; DMG-PEG2000:DSPC:Chol:Lipid 1.77:14.07:49.16:35.00, N/P 48, IH, whole body scan): 2.89 × 10^6
- in vivo delivery efficiency as compared to the benchmark compound SM102 (mice): superior in vivo delivery efficiency
- PDI [1, 21]: 0.12 ± 0.00
- Particle size [1, 21]: 131.00 ± 1.32 nm
- PDI [1, 22]: 0.10 ± 0.03
- Particle size [1, 22]: 144.83 ± 1.39 nm
